Experimental data from patent US20060263294A1, “Tumor targeting agents and uses thereof” (KARYON OY, priority 2002, published 2006).
Bridge positions count the residues as written; N and C are the ends. Peptide text beside a SMILES is read from it. * marks the point of attachment. X1 = COc1cccc2c1C(=O)c1c(O)c3c(c(O)c1C2=O)C[C@@](C)(/C(CO)=N/OCC(=O)*)C[C@@H]3OC1CC(N)C(O)C(C)O1

Test system: C8161M/T1 melanoma cells tumours
Assay: Therapeutic effect of targeting agent comprising cytotoxic effector unit on melanoma tumors
Format: in vivo, Athymic-nu mice
Settings: 1,43 mg/kg i.v. twice a week, five doses; s.c. C8161M/T1 melanoma; FIG. 1
Experimental: 1 million C8161M/T1 melanoma cells were injected subcutaneously into flank of eight Athymic-nu mice and tumours were allowed to grow for one week. The mice were then divided into three groups those received the following treatments: • Group DMEM: two mice, DMEM only • Group Dox: two mice, 1,43 mg/kg doxorubicin dissolved in DMEM • Group pept+dox: four mice, 1,43 mg/kg Dxrb-Aoa-DLRSK (doxorubicin linked to targeting mofif LRS) dissolved in DMEM (dose equimolar to Group Dox)
Treatments were administered i.v. twice a week (Tuesdays and Fridays), total of five doses were injected. Tumours were measured with a calliper in two perpendicular directions on each injection day and on the day the animals were sacrificed. Tumour volume was calculated by the formula for ellipsoid: Volume=(length×width^2)×0.5

## COc1cccc2c1C(=O)c1c(O)c3c(c(O)c1C2=O)C[C@@](C)(/C(CO)=N/OCC(=O)N[C@H]1CC(=O)NCCCC[C@@H](C(=O)O)NC(=O)[C@H](CO)NC(=O)[C@H](CCCNC(=N)N)NC(=O)[C@H](CC(C)C)NC1=O)C[C@@H]3OC1CC(N)C(O)C(C)O1 (some centres unmarked) [Dxrb-Aoa-DLRSK] (X1-DLRSK-OH; lactam 1-5)
  selective targeting to melanoma tumor in vivo: selectively targets to melanoma tumor in vivo
  therapeutic effect (tumour volume) compared with doxorubicin: significantly increases the therapeutic effect of doxorubicin
